# Values of other authors, collected in patent US20050142123A1, “Water-dispersible coenzyme q10 dry powders” (priority 2002, published 2005).
# Key:
# [1] = administered orally
smiles,measurement,setting,value
"COC1=C(OC)C(=O)C(CC=C(C)CCC=C(C)CCC=C(C)CCC=C(C)CCC=C(C)CCC=C(C)CCC=C(C)CCC=C(C)CCC=C(C)CCC=C(C)C)=C(C)C1=O [Coenzyme Q-10, 6-Decaprenyl-2,3-dimethoxy-5-methyl-1,4-benzoquinone]",bioavailability,[1],poor
same,solubility in water,,practically insoluble in water
